Assay results taken from publication PMC4081582, “Enhancing Effect of Borneol and Muscone on Geniposide Transport across the Human Nasal Epithelial Cell Monolayer” (PLoS ONE, 2014).

Key:
HNECs = assay: MTT cytotoxicity assay on HNECs; assay type: cell-based, human; details: 24 h
Protocol: The cytotoxicity of the main active ingredients in “Xing Nao Jing” on HNECs was evaluated by the methyl thiazolyl tetrazolium (MTT) colorimetric assay. Briefly, 100 µL of 5×10^4 cells·mL^−1 was seeded into 96-well plates. After 24 h, the medium was removed and replaced with a fresh medium containing increasing concentrations of geniposide, borneol, muscone and their combinations for another 24 h. After that, 15 µL of a 5 mg·mL^−1 MTT solution in 100 µL BEGM was added to each well. After 4 h of incubation, the supernatant was discarded and formazan crystals were dissolved in DMSO followed by vigorous mixing. Control wells were incubated with BEGM only and were treated similarly as above. The optical density was determined at 490 nm with a Multiskan Go microplate reader (Thermo, USA). The percent viability of the cells was determined from the absorbance values considering that of the control as 100%.
The percentage of cell toxicity in the MTT assay was calculated by the following equation (1): [drawing 1]

[1] = Transport of geniposide across the HNEC monolayer; assay type: in vitro ADME, human; details: human
Protocol: (§1) When HNECs reached approximately 80–90% confluence, the cells were detached with trypsin and were seeded at a density of 2×10^5 cells·cm^−2 on PET inserts. The culture medium was BEGM:DMEM/F12 (1∶1) in both sides at 37 °C in an atmosphere of 5% CO2 and 95% relative humidity, which was first changed after 24 h of seeding and then every 2 days.
(§2) The transport experiments were carried out when transepithelial electrical resistance (TEER) value was higher than 500 Ω·cm^2. The transport studies were performed by initially incubating the monolayers in Hanks balanced salt solution (HBSS) for 30 min at 37 °C. To measure apical (A) → basolateral (B) transport, 0.5 mL of drug solution and 1.5 mL of HBSS were added in the A and B sides, respectively. Basolateral (B) → apical (A) transport was evaluated by adding 1.5 mL of drug solution in B side and 0.5 mL of HBSS in A side.
(§3) Geniposide transport was studied at three concentrations: 25, 50 and 100 µg·mL^−1. The effect of borneol was studied at 27.8, 55.6 and 111.2 µg·mL^−1 concentrations in the presence of 50 µg·mL^−1 geniposide. The effect of muscone was studied at 4.17, 8.34 and 16.68 µg·mL^−1 concentrations in the presence of 50 µg·mL^−1 geniposide. Finally, the effects of both borneol and muscone were studied at the concentrations mentioned above in the presence of 50 µg·mL^−1 geniposide.
(§4) Each measurement was evaluated in triplicate. Cells were incubated in a 37 °C shaking incubator. Samples of 200 µL were taken from the apical side (to study B → A transport) and samples of 600 µL were taken from the basal side (to study A → B transport) at 30, 60, 90, 120, 150, 180 min time intervals. The same volume of fresh preheated HBSS was added to keep the volume constant. Samples were centrifuged for 10 min at 12,000 r·min^−1 and the supernatant was analyzed for geniposide by HPLC.
(§5) An UV-HPLC method was used to quantify the geniposide concentrations in the transport studies. The chromatographic conditions consisted of a Purospher Star C18 column (4×200 mm, particle size 5 µm) plus guard column. Geniposide samples were analyzed with UV detection (λ = 238 nm) and the mobile phase was composed of acetonitrile and water (16∶84, v/v). The mobile phase was pumped at a flow rate of 1 mL·min^−1 and the injected volume was 20 µL. In these conditions, the retention time of geniposide was 8.5 min.
(§6) The apparent permeability coefficients (Papp) for geniposide were calculated according to the following equation (2): [drawing 2] where Papp is the permeability, dQ/dt is the apparent appearance rate of drug in the receiver side calculated using linear regression of amounts in the receiver chamber versus time, C is the drug concentration in the donor chamber and S is the surface area of the monolayer. The efflux ratio (ER) was calculated according to the following equation (3): [drawing 3]

HNEC monolayer = assay: Transport of geniposide across the HNEC monolayer; assay type: in vitro ADME, human; details: for B→A fluxes of geniposide / A→B fluxes of geniposide: P<0.05 vs control
Protocol: as §1, §2, §3, §4, §5, §6

P-gp = P-gp substrate assessment from bidirectional transport in HNEC monolayer; assay type: in vitro ADME, human; details: HNEC model
Protocol: as §2, §6

[2] = rats, at 3 h; cited from earlier work
[3] = cited from earlier work
[4] = mice, intravenous administration; cited from earlier work
[5] = Ge 50 µg·mL^−1 +Bo 27.8 µg·mL^−1
[6] = Ge 50 µg·mL^−1 +Bo 27.8 µg·mL^−1 Mu 4.17 µg·mL^−1
[7] = Ge 50 µg·mL^−1 +Bo 55.6 µg·mL^−1
[8] = Ge 50 µg·mL^−1 +Bo 55.6 µg·mL^−1 Mu 8.34 µg·mL^−1
[9] = Ge 50 µg·mL^−1 +Bo 111.2 µg·mL^−1
[10] = Ge 50 µg·mL^−1 +Bo 111.2 µg·mL^−1 Mu 16.68 µg·mL^−1
[11] = Ge 50 µg·mL^−1 +Mu 4.17 µg·mL^−1
[12] = Ge 50 µg·mL^−1 +Mu 8.34 µg·mL^−1
[13] = Ge 50 µg·mL^−1 +Mu 16.68 µg·mL^−1
[14] = geniposide 50 µg·mL^−1 alone (control)

COC(=O)C1=CO[C@@H](O[C@@H]2O[C@H](CO)[C@@H](O)[C@H](O)[C@H]2O)[C@@H]2C(CO)=CC[C@H]12 [geniposide, Geniposide]
concentration range with no cell cytotoxicity (HNECs): 0 to 400000 ng/mL
Papp A→B at 180 min, 50 µg·mL^−1 [1, 5]: 1.17 ± 0.12 ×10⁻⁶ cm/s
Papp B→A at 180 min, 50 µg·mL^−1 [1, 5]: 1.61 ± 0.034 ×10⁻⁶ cm/s
Papp A→B at 180 min, 50 µg·mL^−1 [1, 6]: 1.43 ± 0.083 ×10⁻⁶ cm/s
Papp B→A at 180 min, 50 µg·mL^−1 [1, 6]: 1.81 ± 0.024 ×10⁻⁶ cm/s
Papp A→B at 180 min, 50 µg·mL^−1 [1, 7]: 1.35 ± 0.086 ×10⁻⁶ cm/s
Papp B→A at 180 min, 50 µg·mL^−1 [1, 7]: 1.92 ± 0.111 ×10⁻⁶ cm/s
Papp A→B at 180 min, 50 µg·mL^−1 [1, 8]: 1.75 ± 0.043 ×10⁻⁶ cm/s
Papp B→A at 180 min, 50 µg·mL^−1 [1, 8]: 1.916 ± 0.019 ×10⁻⁶ cm/s
Papp A→B at 180 min, 50 µg·mL^−1 [1, 9]: 1.99 ± 0.293 ×10⁻⁶ cm/s
Papp B→A at 180 min, 50 µg·mL^−1 [1, 9]: 1.99 ± 0.126 ×10⁻⁶ cm/s
Papp A→B at 180 min, 50 µg·mL^−1 [1, 10]: 1.92 ± 0.049 ×10⁻⁶ cm/s
Papp B→A at 180 min, 50 µg·mL^−1 [1, 10]: 2.39 ± 0.052 ×10⁻⁶ cm/s
Papp A→B at 180 min, 50 µg·mL^−1 [1, 11]: 1.15 ± 0.068 ×10⁻⁶ cm/s
Papp B→A at 180 min, 50 µg·mL^−1 [1, 11]: 1.6 ± 0.021 ×10⁻⁶ cm/s
Papp A→B at 180 min, 50 µg·mL^−1 [1, 12]: 1.61 ± 0.054 ×10⁻⁶ cm/s
Papp B→A at 180 min, 50 µg·mL^−1 [1, 12]: 2.039 ± 0.018 ×10⁻⁶ cm/s
Papp A→B at 180 min, 50 µg·mL^−1 [1, 13]: 1.97 ± 0.108 ×10⁻⁶ cm/s
Papp B→A at 180 min, 50 µg·mL^−1 [1, 13]: 2.104 ± 0.02 ×10⁻⁶ cm/s
Papp A→B at 180 min, 25 µg·mL^−1 ([1]; geniposide 25 µg·mL^−1): 1.27 ± 0.314 ×10⁻⁶ cm/s
Papp B→A at 180 min, 25 µg·mL^−1 ([1]; geniposide 25 µg·mL^−1): 1.35 ± 0.113 ×10⁻⁶ cm/s
efflux ratio at 180 min, 25 µg·mL^−1 ([1]; geniposide 25 µg·mL^−1, read-out: ER±SD(B→A/A→B)): 1.1 ± 0.256
Papp A→B at 180 min, 50 µg·mL^−1 [1, 14]: 1.22 ± 0.015 ×10⁻⁶ cm/s
Papp B→A at 180 min, 50 µg·mL^−1 [1, 14]: 1.26 ± 0.084 ×10⁻⁶ cm/s
efflux ratio at 180 min, 50 µg·mL^−1 ([1]; geniposide 50 µg·mL^−1 alone (control), read-out: ER±SD(B→A/A→B)): 1.03 ± 0.076
Papp A→B at 180 min, 100 µg·mL^−1 ([1]; geniposide 100 µg·mL^−1): 1.25 ± 0.074 ×10⁻⁶ cm/s
Papp B→A at 180 min, 100 µg·mL^−1 ([1]; geniposide 100 µg·mL^−1): 1.19 ± 0.104 ×10⁻⁶ cm/s
efflux ratio at 180 min, 100 µg·mL^−1 ([1]; geniposide 100 µg·mL^−1, read-out: ER±SD(B→A/A→B)): 0.951 ± 0.132
Papp at 180 min ([1]; HNEC monolayer, geniposide 25-100 µg·mL^−1, read-out: permeability coefficients): 1.22 to 1.27 ×10⁻⁶ cm/s
ER±SD(B→A/A→B) (HNEC monolayer; [5]): 1.388±0.162
ER±SD(B→A/A→B) (HNEC monolayer; [6]): 1.268±0.057
ER±SD(B→A/A→B) (HNEC monolayer; [7]): 1.429±0.149
ER±SD(B→A/A→B) (HNEC monolayer; [8]): 1.092±0.023
ER±SD(B→A/A→B) (HNEC monolayer; [9]): 1.012±0.106
ER±SD(B→A/A→B) (HNEC monolayer; [10]): 1.245±0.026
ER±SD(B→A/A→B) (HNEC monolayer; [11]): 1.400±0.071
ER±SD(B→A/A→B) (HNEC monolayer; [12]): 1.268±0.033
ER±SD(B→A/A→B) (HNEC monolayer; [13]): 1.072±0.069
B→A fluxes of geniposide (HNEC monolayer; Ge 50 µg·mL^−1 combined with borneol (27.8, 55.6, 111.2 µg·mL^−1)): significantly increased
B→A fluxes of geniposide (HNEC monolayer; Ge 50 µg·mL^−1 combined with muscone (4.17, 8.34, 16.68 µg·mL^−1)): significantly increased
A→B fluxes of geniposide (HNEC monolayer; Ge 50 µg·mL^−1 in presence of borneol (111.2 µg·mL^−1)): significantly increased
A→B fluxes of geniposide (HNEC monolayer; Ge 50 µg·mL^−1 in presence of muscone (8.34, 16.68 µg·mL^−1)): significantly increased
permeability values in both directions (HNEC monolayer; Ge 50 µg·mL^−1 in the presence of borneol and muscone (Bo 27.8/Mu 4.17, Bo 55.6/Mu 8.34, Bo 111.2/Mu 16.68 µg·mL^−1), P<0.05): an increasing of permeability values in both directions was observed in a concentration-dependent manner
(B→A)/(A→B) permeability ER (HNEC monolayer; geniposide 25, 50 and 100 µg·mL^−1): less than 2
P-gp substrate (P-gp): not a P-gp substrate
absorption percentage in the intestinal tract [2]: about 15.9%
apparent partition coefficient between octanol and water [3]: about 0.108
brain/blood drug ratio [4]: about 10%
